In ChEMBL document CHEMBL1129025, “Molecular basis of peripheral vs central benzodiazepine receptor selectivity in a new class of peripheral benzodiazepine receptor ligands related to alpidem” (J Med Chem, 1996):

How the values were obtained:
[1] = biological target: T1, Translocator protein (Rattus norvegicus, UniProt P16257); assay: Binding affinity against peripheral benzodiazepine receptor( PBR).
[2] = biological target: T1, Translocator protein; assay: Displacement of [3H]PK11195 from rat cerebral cortex peripheral benzodiazepine receptor (type 1); assay type: tissue-based
[3] = biological target: T1, Translocator protein; assay: Displacement of [3H]Ro-5-4864 from rat cerebral cortex peripheral benzodiazepine receptor; assay type: tissue-based
[4] = biological target: GABA-A receptor; anion channel; assay: Binding affinity against central benzodiazepine receptor(CBR).; assay type: protein-complex assay
[5] = biological target: T1, Translocator protein; assay: Displacement of [3H]PK11195 from rat kidney peripheral benzodiazepine receptor (type 2)
[6] = biological target: T1, Translocator protein; assay: Displacement of [3H]Ro-5-4864 from rat kidney peripheral benzodiazepine receptor
[7] = biological target: T1, Translocator protein; assay: Displacement of [3H]PK11195 from rat kidney peripheral benzodiazepine receptor (type 1)
[8] = biological target: T1, Translocator protein; assay: Displacement of [3H]PK11195 from rat cerebral cortex peripheral benzodiazepine receptor (type 2); assay type: tissue-based
[9] = biological target: T1, Translocator protein; assay: Displacement of [3H]-PK11195 from rat kidney peripheral benzodiazepine receptor (type 2)

T1 sequence (P16257 whole entry, looked up): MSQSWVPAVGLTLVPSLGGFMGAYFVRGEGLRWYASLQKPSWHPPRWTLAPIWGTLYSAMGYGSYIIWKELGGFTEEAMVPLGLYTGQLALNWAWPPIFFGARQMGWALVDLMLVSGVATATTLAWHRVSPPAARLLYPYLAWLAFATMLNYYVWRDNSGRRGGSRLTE

Compound | IC50 [1] | IC50 [4] | other results
CN(Cc1ccccc1)C(=O)/C=C1\c2nc3ccccc3cc2C(=O)N1c1ccc(Cl)cc1 | > 1000 nM | – | –
CCCN(CCC)C(=O)/C=C1\c2nc3ccccc3cc2C(=O)N1c1ccc(Cl)cc1 | 40 nM | > 1000 nM | IC50 [2]: 4.9 nM; IC50 [3]: 120 nM; IC50 [5]: 160 nM; IC50 [6]: 150 nM; IC50 [7]: 2.7 nM; IC50 [8]: 210 nM
CCCCCCN(CCCCCC)C(=O)CC1c2ncccc2C(=O)N1c1ccc(Cl)cc1 (centres undefined) | 1600 nM | > 1000 nM | –
CN(C(=O)/C=C1\c2nc3ccccc3cc2C(=O)N1c1ccc(Cl)cc1)c1ccc(Cl)cc1 | 32 nM | – | IC50 [2]: 2.4 nM; IC50 [3]: 4.5 nM; IC50 [6]: 2 nM; IC50 [9]: 140 nM; IC50 [7]: 1.1 nM; IC50 [8]: 610 nM
COc1ccc(N(C)C(=O)/C=C2\c3nc4ccccc4cc3C(=O)N2c2ccc(Cl)cc2)cc1 | 1.9 nM | – | IC50 [2]: 9.8 nM; IC50 [3]: 2.3 nM; IC50 [5]: 14 nM; IC50 [6]: 1.7 nM; IC50 [7]: 0.7 nM; IC50 [8]: 320 nM
CCCN(CCC)C(=O)/C=C1\c2ncccc2C(=O)N1c1ccc(Cl)cc1 | 290 nM | > 1000 nM | –
CCCCCCN(CCCCCC)C(=O)/C=C1\c2ncccc2C(=O)N1c1ccc(Cl)cc1 | 33000 nM | > 1000 nM | –
CCCN(CCC)C(=O)C=C1c2nc3ccccc3cc2C(=O)N1c1ccc(Cl)cc1 | > 1000 nM | – | –
CCN(Cc1ccccc1)C(=O)/C=C1\c2nc3ccccc3cc2C(=O)N1c1ccc(Cl)cc1 | > 1000 nM | – | –
CCCCCCN(CCCCCC)C(=O)/C=C1\c2nc3ccccc3cc2C(=O)N1c1ccc(Cl)cc1 | 150 nM | > 1000 nM | –
CCCCCCN(CCCCCC)C(=O)CC1c2nc3ccccc3cc2C(=O)N1c1ccc(Cl)cc1 (centres undefined) | > 1000 nM | > 1000 nM | –
CCCN(CCC)C(=O)CC1c2nc3ccccc3cc2C(=O)N1c1ccc(Cl)cc1 (centres undefined) | > 1000 nM | > 1000 nM | –
O=C1c2cccnc2CN1c1ccc(Cl)cc1 | > 1000 nM | > 1000 nM | –
CCCN(CCC)C(=O)CC1c2ncccc2C(=O)N1c1ccc(Cl)cc1 (centres undefined) | > 1000 nM | 860 nM | –
CCCN(CCC)C(=O)Cc1c(-c2ccc(Cl)cc2)nc2ccc(Cl)cn12 [ALPIDEM] | 7 nM | 28 nM | –
CN1CCN(C(=O)OC2c3nccnc3C(=O)N2c2ccc(Cl)cn2)CC1 (centres undefined) [ZOPICLONE] | – | 29 nM | –
